Results taken from ChEMBL document CHEMBL1201862, “PubChem BioAssay data set” (2004).
The source made the active and inactive calls.

Tests used:
[1] = target: Cytochrome P450 2C9 (Homo sapiens, UniProt P11712)
[2] = cytotoxicity toward NIH3T3 fibroblasts, dose response, counter-screen, cell-based, ATP luminescence, mouse fibroblasts (AID 2010); type: functional;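 further: cells exposed to compound for about 90 hours before reading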
[3] = inhibitors of intracellular T. cruzi replication, confirmation, NIH3T3 host cells, beta-gal luminescence (AID 2044); type: functional, cell-based;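 further: intracellular parasites grown in NIH/3T3 mouse fibroblasts as host cells; luminescent beta-galactosidase reporter signal from transgenic T. cruzi replicating inside host cells; inhibitors lower the luminescence signal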
[4] = target: T1, Cytochrome P450 1A2 (Homo sapiens, UniProt P05177);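 further: PubChem cytochrome P450 panel assay, CYP1A2 panel member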
T1 sequence (P05177 whole entry): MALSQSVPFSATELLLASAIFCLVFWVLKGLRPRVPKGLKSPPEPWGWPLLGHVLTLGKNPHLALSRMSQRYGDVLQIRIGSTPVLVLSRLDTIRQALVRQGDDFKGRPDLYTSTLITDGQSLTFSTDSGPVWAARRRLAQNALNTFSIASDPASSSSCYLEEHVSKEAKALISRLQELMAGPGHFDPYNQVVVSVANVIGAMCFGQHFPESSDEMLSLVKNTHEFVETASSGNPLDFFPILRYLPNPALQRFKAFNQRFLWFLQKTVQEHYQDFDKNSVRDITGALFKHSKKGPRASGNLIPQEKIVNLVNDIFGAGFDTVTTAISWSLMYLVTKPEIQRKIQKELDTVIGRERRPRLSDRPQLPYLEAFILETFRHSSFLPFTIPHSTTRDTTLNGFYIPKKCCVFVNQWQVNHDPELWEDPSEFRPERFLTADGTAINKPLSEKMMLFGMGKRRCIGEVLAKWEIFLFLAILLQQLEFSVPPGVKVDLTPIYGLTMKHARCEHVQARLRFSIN

[5] = target: Cytochrome P450 3A4 (Homo sapiens, UniProt P08684);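 further: CYP3A4 tested as one member of a cytochrome P450 panel screen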
Cytochrome P450 3A4, sequence (P08684 whole entry): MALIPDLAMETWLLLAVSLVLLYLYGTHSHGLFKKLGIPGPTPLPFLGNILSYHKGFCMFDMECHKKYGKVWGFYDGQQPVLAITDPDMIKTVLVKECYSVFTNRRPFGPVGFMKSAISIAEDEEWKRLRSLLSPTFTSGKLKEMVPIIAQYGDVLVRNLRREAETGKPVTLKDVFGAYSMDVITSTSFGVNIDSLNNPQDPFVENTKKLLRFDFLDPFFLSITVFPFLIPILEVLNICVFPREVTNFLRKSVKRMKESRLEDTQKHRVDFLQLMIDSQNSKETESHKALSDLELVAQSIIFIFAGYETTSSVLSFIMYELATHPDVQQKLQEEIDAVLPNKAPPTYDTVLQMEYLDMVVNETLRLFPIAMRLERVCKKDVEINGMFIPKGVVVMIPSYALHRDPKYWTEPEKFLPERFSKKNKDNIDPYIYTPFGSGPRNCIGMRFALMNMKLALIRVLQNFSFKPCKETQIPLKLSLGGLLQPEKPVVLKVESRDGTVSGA

[6] = target: T2, Corticotropin-releasing factor receptor 2/Corticotropin-releasing factor-binding protein (Homo sapiens, UniProt P24387+Q13324); test: activators of CRF receptor 2 with binding protein – uHTS hits, confirmation (AID 602473); type: functional; details: read-out: EC50_Mean
T2 sequence (Q13324 whole entry): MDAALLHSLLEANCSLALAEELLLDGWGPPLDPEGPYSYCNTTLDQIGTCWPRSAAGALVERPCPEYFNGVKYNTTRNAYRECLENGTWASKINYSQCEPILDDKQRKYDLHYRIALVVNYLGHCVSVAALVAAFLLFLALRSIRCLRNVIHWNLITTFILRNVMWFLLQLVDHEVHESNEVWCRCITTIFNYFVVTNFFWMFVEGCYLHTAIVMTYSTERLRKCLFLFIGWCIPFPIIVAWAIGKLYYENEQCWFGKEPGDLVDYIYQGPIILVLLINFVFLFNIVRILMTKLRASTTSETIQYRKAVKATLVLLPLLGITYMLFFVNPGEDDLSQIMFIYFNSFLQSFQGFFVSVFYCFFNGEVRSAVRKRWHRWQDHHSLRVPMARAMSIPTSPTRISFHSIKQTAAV
T2 sequence (P24387 whole entry): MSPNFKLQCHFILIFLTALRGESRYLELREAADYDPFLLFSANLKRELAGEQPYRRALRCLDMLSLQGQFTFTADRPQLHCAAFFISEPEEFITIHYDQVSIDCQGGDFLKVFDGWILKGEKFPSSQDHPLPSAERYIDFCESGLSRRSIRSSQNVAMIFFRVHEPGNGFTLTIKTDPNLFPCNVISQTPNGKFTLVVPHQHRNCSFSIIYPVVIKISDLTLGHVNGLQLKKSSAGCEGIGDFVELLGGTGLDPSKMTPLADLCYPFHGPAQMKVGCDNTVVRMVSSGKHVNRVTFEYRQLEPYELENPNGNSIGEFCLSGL

[7] = Luminescence Cell-Based Dose Response HTS to Identify Activators of Luciferase Translation or Activity in H4 […] Cells. [Related pubchem assays: 1829 (Project Summary), 1814 (Primary HTS)]; type: functional
[8] = tested on: H4; test: Luminescence Cell-Based Dose Response HTS to Identify Activators of 5'UTR Stem-Loop Driven Prion Protein mRNA Translation in H4 Neuroglioblastoma Cells. [Related pubchem assays: 1829 (Project Summary), 1814 (Primary HTS)]; type: functional; details: Homo sapiens
[9] = NIH-3T3 fibroblast cytotoxicity, dose response, cytotoxicity control, cell-based, fluorescence, Alamar Blue, secondary assay (AID 2327); type: functional;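 further: NIH-3T3 mouse fibroblasts cultured with fluconazole at 8 µg/mL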
[10] = cells; type: functional

Cytochrome P450 2C9, sequence (P11712 whole entry): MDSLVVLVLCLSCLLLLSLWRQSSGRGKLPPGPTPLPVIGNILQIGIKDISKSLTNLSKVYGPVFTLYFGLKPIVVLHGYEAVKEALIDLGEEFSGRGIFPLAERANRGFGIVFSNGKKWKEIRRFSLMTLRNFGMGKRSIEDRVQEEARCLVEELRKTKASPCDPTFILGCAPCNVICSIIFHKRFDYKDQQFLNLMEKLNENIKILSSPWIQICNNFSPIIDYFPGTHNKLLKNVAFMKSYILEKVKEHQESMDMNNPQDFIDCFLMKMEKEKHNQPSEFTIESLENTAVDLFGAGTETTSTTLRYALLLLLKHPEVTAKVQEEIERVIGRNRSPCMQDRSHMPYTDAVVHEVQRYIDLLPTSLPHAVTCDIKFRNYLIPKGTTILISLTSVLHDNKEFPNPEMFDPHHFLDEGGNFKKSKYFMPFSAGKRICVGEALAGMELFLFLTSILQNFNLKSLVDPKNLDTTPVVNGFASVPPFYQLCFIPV

CC(C)=CC(=O)OCC(=O)Nc1ncc(Cl)c(C)c1Cl
AC50 [1]: 0.0631 µM (inconclusive)

O=C1CCCN1CC(CN1CCOCC1)Sc1nnnn1-c1ccccc1 (stereo unspecified)
AC50 [1]: 6.31 µM (inconclusive)

CCOC(=O)c1c(NC(=O)Cn2cnc([N+](=O)[O-])n2)sc(C)c1C
EC50 [2]: > 30 µM (not active) | EC50 [3]: 0.191 µM (active)

Cn1c(=O)c(-c2cc(F)cc(F)c2)nc2cnc(N3CCOCC3)nc21
AC50 [4]: 5.01 µM (inconclusive)

O=c1c2ccccc2nc(SCc2ccccc2Cl)n1Cc1ccccc1
AC50 [5]: 15.8 µM (inconclusive)

O=C(NCc1ccccc1)C12CN(Cc3ccccc3)CC1C(c1cccc([N+](=O)[O-])c1)=NO2 (stereo unspecified)
AC50 [4]: 15.8 µM (inconclusive)

c1nc(NCCN2CCOCC2)c2cc(-c3ccoc3)ccc2n1
AC50 [5]: 15.8 µM (inconclusive)

CCCCCCc1cc2cc(C(=O)Nc3ccccc3OC)c(=O)oc2cc1O
EC50 [6]: 1.97 µM (active)

CO[C@@H]1COC(=O)C/C=C\[C@H](C)COC(=O)[C@H](Cc2ccccc2)NC(=O)C/C=C\[C@H]1C
AC50 [5]: 6.31 µM (inconclusive)

CC1CCN(c2cc(N3CCC(C)CC3)c([N+](=O)[O-])cc2/C=C(\C#N)c2nn(-c3ccccc3)c(N)c2C#N)CC1
AC50 [5]: 3.98 µM (inconclusive)

COc1ccc(-n2c(=O)cnc3cnc(N4CCNCC4)nc32)cc1
AC50 [1]: 39.8 µM (inconclusive)

COC(=O)[C@@H]1CC[C@H](C)[C@@H](c2ccc(C)cc2)N1C(=O)c1ccc(/C=N\O[C@@H]2O[C@H](COC(C)=O)[C@H](OC(C)=O)[C@H](OC(C)=O)[C@H]2OC(C)=O)cc1
AC50 [1]: 1.58 µM (inconclusive)

Cc1cccc(-c2nsc(SCC(=O)N3CCCC3)n2)c1
EC50 [7]: 0.104 µM (active) | EC50 [8]: 0.217 µM (active)

Cc1ccc(C(C)C)cc1OCC(=O)Nc1ccc(N2CCCCC2)cc1
EC50 [2]: > 16 µM (not active) | EC50 [3]: 2.03 µM (active)

O=C(CSc1nc2ccccc2c(=O)n1Cc1ccccc1)NCc1ccco1
AC50 [4]: 1.41 µM (inconclusive) | AC50 [5]: 39.8 µM (inconclusive)

COCCn1c(=O)c(-c2ccccc2)nc2cnc(Oc3cccc(Cl)c3)nc21
AC50 [5]: 20 µM (inconclusive)

COc1ccc(-n2c(=O)c(-c3cccs3)nc3cnc(Oc4ccccc4)nc32)cc1
AC50 [1]: 12.6 µM (inconclusive)

CN1Cc2cccc3c2C(Cc2ccccc2S3)C1 (stereo unspecified)
EC50 [2]: > 30 µM (not active) | EC50 [3]: 0.451 µM (active)

COC(=O)[C@@H]1CC[C@H](C)[C@@H](c2ccc(C)cc2)N1C(=O)c1ccc(/C=N\O[C@@H](C)CN2CCCCc3nc(C)c(C)cc32)cc1
AC50 [1]: 3.16 µM (inconclusive) | AC50 [5]: 3.16 µM (inconclusive)

CC(=O)c1sc2nc(-c3ccccc3)cc(C)c2c1N
EC50 [2]: > 60 µM (not active) | EC50 [3]: 0.638 µM (active)

CSc1cccc(CN2CCCC(CO)(Cc3cccc(Cl)c3)C2)c1 (stereo unspecified)
EC50 [2]: > 30 µM (not active) | EC50 [3]: 0.514 µM (active)

COC[C@H]1OC(=O)c2coc3c2[C@@]1(C)C1=C(C3=O)[C@H]2CCC(=O)[C@@]2(C)C[C@H]1OC(C)=O
AC50 [4]: 31.6 µM (inconclusive) | AC50 [5]: 7.94 µM (inconclusive)

O=C(Nc1ccc(OC(=O)c2cccnc2)cc1)c1cccnc1
AC50 [5]: 12.6 µM (inconclusive)

Cc1cc(C)n(-c2cc(N3CCN(C(=O)c4ccc(C(C)(C)C)cc4)CC3)ccc2[N+](=O)[O-])n1
AC50 [5]: 35.5 µM (inconclusive)

Cc1ccc(NC(=O)NNC(=O)c2cc3ccccc3cc2O)c(C)c1
EC50 [9]: > 150 µM (inconclusive)

Cn1c(=O)c(Oc2ccc(F)cc2)c(O)c2ccccc21
IC50 [10]: 1.87 µM (active)

CS(=O)(=O)N(CC(=O)Nc1cccc(F)c1)c1cccc([N+](=O)[O-])c1
AC50 [5]: 17.8 µM (inconclusive)

CCOc1cc(CNCCc2ccc(S(N)(=O)=O)cc2)cc(Cl)c1OCc1ccccc1
EC50 [2]: > 60 µM (not active) | EC50 [3]: 0.373 µM (active)

COc1cccc(NC(=S)N(Cc2ccc(C)cc2)Cc2ccccn2)c1
EC50 [2]: > 60 µM (not active) | EC50 [3]: 0.764 µM (active)

Cc1nc2cnc(Oc3ccccc3)nc2n(CCc2ccccc2)c1=O
AC50 [4]: 3.16 µM (inconclusive) | AC50 [5]: 20 µM (inconclusive)

O=C(Nc1ccccc1)[C@@]12C[C@@H]1/C(=N/O)c1ccccc1O2
AC50 [1]: 20 µM (inconclusive)

O=S(=O)(c1ccccc1)N1CCC[C@@]2(CCN(Cc3nccs3)C2)C1
AC50 [1]: 31.6 µM (inconclusive)

CN1CCN(CC(O)c2ccccc2)CC1 (stereo unspecified)
EC50 [2]: 31.2 µM (active) | EC50 [3]: 0.934 µM (active)

CCOC(=O)c1cc(CC)sc1NC(=O)C(c1ccccc1)c1ccccc1
AC50 [5]: 11.2 µM (inconclusive)

Cc1ccc(C2=NN(C)c3nc4ccccc4n3C2)cc1
IC50 [10]: 8.22 µM (active)

COC(=O)C1CC(=O)N(c2ccc(OCc3ccccc3Cl)cc2)C1 (stereo unspecified)
IC50 [10]: 2.2 µM (active)

CN1CCC(NC(=O)Nc2ccc(Br)cc2)CC1
EC50 [2]: > 60 µM (not active) | EC50 [3]: 0.188 µM (active)

CC/C=C\CC[C@H](OC(=O)c1ccc(Br)cc1)C1=CCCCC1=O
AC50 [1]: 3.16 µM (inconclusive) | AC50 [5]: 3.98 µM (inconclusive)

Cc1ccc(C2=Nc3ccccc3S[C@@H](c3cccc([N+](=O)[O-])c3)C2)cc1
AC50 [4]: 2 µM (inconclusive)

COc1cc(-c2nc(-c3cc([N+](=O)[O-])ccc3C)c(-c3ccccc3)[nH]2)cc(OC)c1OC
EC50 [2]: > 60 µM (not active) | EC50 [3]: 0.561 µM (active)

CCN1CCc2c(sc(NC(=O)c3ccc(S(=O)(=O)N(CC)c4ccccc4)cc3)c2C(N)=O)C1
EC50 [6]: 4.85 µM (active)

C[C@@H]1C[C@H]2[C@H]3C[C@@H](F)C4=CC(=O)C=C[C@]4(C)[C@@]3(Cl)[C@@H](O)C[C@@]2(C)[C@@H]1C(=O)COC(=O)C(C)(C)C
AC50 [5]: 0.398 µM (inconclusive)

O=C(N/N=C1/C[C@@H](O)[C@@H](O)[C@@H]2[C@H]3C(=O)N(c4ccc(F)cc4F)C(=O)[C@@H]3CC[C@@H]12)OCc1ccccc1
AC50 [5]: 3.98 µM (inconclusive)

C=CCCCCCCCCC(=O)Nc1cnc(O)nc1O
AC50 [5]: 10 µM (inconclusive)

Cc1c(Cl)cccc1NC(=O)C(=O)NNC(=O)c1ccccc1F
IC50 [10]: 15 µM (active)

Cc1nc2cnc(N(C)C)nc2n(C)c1=O
AC50 [5]: 15.8 µM (inconclusive)

O=C(NC1CC1)c1cccc2c1C(=O)c1ccc(N3CCC(Cc4ccccc4)CC3)cc1S2(=O)=O
EC50 [6]: 7.05 µM (active)

Cc1noc(C)c1C(=O)N1CCC2(CCN(C(=O)NC(C)C)CC2)CC1
AC50 [4]: 5.01 µM (inconclusive)

Cc1ccc(CSc2nnc([C@@H]3CCCN3)o2)cc1
AC50 [1]: 10 µM (inconclusive) | AC50 [5]: 3.55 µM (inconclusive)

Cc1ccc(NC(=O)CO/N=C/c2ccc(N(C)C)cc2)cc1
IC50 [10]: > 50 µM (active)

COc1ccc2nc(SCC(=O)Nc3ccc4c(c3)OCCO4)[nH]c2c1
AC50 [5]: 6.31 µM (inconclusive)

C=C1[C@@H](O)C2C=CC[C@H](C)C(=O)[C@@](C)(O)C=C[C@@H](OC(C)=O)[C@@]23C(=O)N[C@H](Cc2ccccc2)[C@@H]3[C@@H]1C (stereo partly specified)
AC50 [1]: 31.6 µM (inconclusive) | AC50 [5]: 15.8 µM (inconclusive)

O=C(COc1ccc2ccccc2c1)N/N=C/c1ccccn1
IC50 [10]: > 50 µM (active)

Cc1ccc(CN2CCN(/N=C/c3ccc(Cl)c([N+](=O)[O-])c3)CC2)cc1
EC50 [2]: > 60 µM (not active) | EC50 [3]: 1.31 µM (active)

COc1ccccc1CNc1ncnc2ccc(-c3ccc(N(C)C)cc3)cc12
AC50 [1]: 0.631 µM (inconclusive)

Cc1nnc2ccc(-c3cccc(C(F)(F)F)c3)nn12 [CI-218872]
AC50 [5]: 31.6 µM (inconclusive)

c1ccc(C2CC2)c(OCC2=NCCN2)c1 [CIRAZOLINE]
AC50 [4]: 15.8 µM (inconclusive)
